# Earlier results, collected in US12274789B2, “Oral compositions comprising methylprednisolone sodium succinate” (LABOMED PHARMACEUTICAL COMPANY S.A., priority 2018, dated 2025).
# Conditions: versus prednisolone
structure (smiles),measurement,value
"C[C@H]1C[C@@H]2[C@H]([C@@H](O)C[C@@]3(C)[C@H]2CC[C@]3(O)C(=O)COC(=O)CCC(=O)[O-])[C@@]2(C)C=CC(=O)C=C12.[Na+] [methylprednisolone sodium succinate, pregna-1,4-diene-3,20dione,21-(3-carboxy-1-oxopropoxy)-11,17-dihydroxy-6-methyl-monosodium salt, (6α, 11β)]","anti-inflammatory potency, ratio to prednisolone",5 to 4
